Measurements as given in PubChem BioAssay AID1918953 (Molecular Pharmacology Branch, DTP, NCI, 2023).

System: MDA-MB-231 complex spheroid viability
Test: Anticancer human tumor MDA-MB-231/ATCC cell line growth inhibition;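 note: drug exposure lasted 7 days starting on day 3 of spheroid growth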
Conditions: for IC50: curve of first compound; for viability, T/C: stronger effect = lower value
Source text: Multicellular complex tumor spheroid response to LSD1 Inhibitor Iadademstat in combination with a variety of drugs and investigational agents in selected tumor cell lines
The current study was undertaken to assess response to LSD1 inhibitors in combination with standard-of-care drugs and investigational agents in solid tumor complex spheroid models as well as in the K-562 leukemia. Complex spheroids include a stromal component modeled by human endothelial cells (HUVEC) and fibroblasts modeled by human mesenchymal stem cells (MSCs). The concentration ranges selected for each drug and investigational agent were based upon clinically achievable concentrations if the clinical Cmax of the agent was known.
Compounds. The drugs and investigational agents used in this study are listed on Table 1. All of the agents used, including staurosporine (NSC755774) and gemcitabine (NSC613327), were obtained from the Developmental Therapeutics Program, NCI. FDA-approved anticancer drugs are available from the NCI at http://dtp.nci.nih.gov/branches/dscb/oncology_drugset_explanation.html. Drugs and investigational agents were >95% pure by proton nuclear magnetic resonance (NMR) and liquid chromatography/mass spectrometry (LC/MS). Stock solutions were prepared at 400x in DMSO, stored at -70 degrees C, and diluted in fresh medium prior to their use. The final concentration of DMSO in cell culture wells never exceeded 0.25% (v/v). The FDA-approved anticancer drug set is available from the Developmental Therapeutics Program at https://dtp.cancer.gov/organization/dscb/obtaining/available_plates.htm. All drugs and investigational agents were tested over a range starting from a high concentration at or near the clinical Cmax and decreasing in half-log increments. If the clinical Cmax for an agent had not been determined, the highest concentration tested was 10 microM.
Cell Lines. The patient-derived cancer cell (PDC) lines: 292921-168-R-J2-PDC, K24384-001-R-PDC, and 521955-158-R2-J5-PDC pancreatic carcinomas, 556581-035-R-J1 ovarian carcinoma, 324938-238-R-J1-PDC, 855422-203-R-J1-PDC and 883617-216-R-J1-PDC urothelial bladder carcinomas, 743489-274-T-PDC renal cell carcinoma, 138582-R-J1 Merkel cell tumor, K60290-347-R-J1 and K57222-313-R-J1-PDC glioblastomas, 653999-131-R-J2-PDC, LG0703-F948-PDC, and 349418-098-R-PDC non-small cell lung carcinomas, 885512-296-R-J2-PDC, 171881-019-R-J1-PDC breast carcinomas and 186277-243-T-J2-PDC and 233499-124-R-J2-PDC colon carcinomas were obtained from the NCI Patient-Derived Models Repository (PDMR, https://pdmr.cancer.gov). The established cell lines NCI/ADR-RES (RRID:CVCL_14520 and OVCAR-5 (RRID:CVCL_1628) ovarian carcinomas, 786-O (RRID:CVCL_1051) and A498 (RRID:CVCL_A498) renal cell carcinoma, NCI-H211 (ATCC, cat. CRL-5824; RRID:CVCL_1529), NCI-H196 (ATCC, cat. CRL-5823, RRID:CVCL_1509), SW 1271 (ATCC, cat. CRL-2177, RRID:CVCL_1716) and NCI-H1876 (ATCC, cat. CRL-5902, RRID:CVCL_1503) small cell lung carcinomas, MDA-MB-231 (RRID:CVCL_0062) and MDA-MB-468 (RRID:CVCL_0419)breast carcinomas (10-12). Pooled donor human umbilical vein endothelial cells (HUVEC, Lonza, cat. CC-2519) and human mesenchymal stem cells (hMSC, Lonza, cat. PT-2501) were purchased from Lonza (Walkersville, MD).
Cell Culture. All cells were maintained in an incubator at 37 degrees C and 5% CO2 with 95% humidity. The PDC lines were cultured according to standard operating procedures established by the NCI PDMR (https://pdmr.cancer.gov). Briefly all PDCs were thawed and cultured in Matrigel-coated flasks prepared with a working solution of 1X Ham's F-12 nutrient mix, without supplementation (Invitrogen, Waltham, MA, cat. 11765054), 100 U/mL penicillin-streptomycin (Invitrogen, cat. 15140122), and 2.5% Matrigel (Corning Inc., Corning, NY, cat. 354248) for the first three passages. […]

[1] = second compound 0.1 µM, first compound 0.000316 µM
[2] = second compound 0.1 µM, first compound 0.001 µM
[3] = second compound 0.1 µM, first compound 0.00316 µM
[4] = second compound 0.1 µM, first compound 0.01 µM
[5] = second compound 0.1 µM, first compound 0.0316 µM
[6] = second compound 0.1 µM, first compound 0.1 µM
[7] = second compound 0.316 µM, first compound 0.000316 µM
[8] = second compound 0.316 µM, first compound 0.001 µM
[9] = second compound 0.316 µM, first compound 0.00316 µM
[10] = second compound 0.316 µM, first compound 0.01 µM
[11] = second compound 0.316 µM, first compound 0.0316 µM
[12] = second compound 0.316 µM, first compound 0.1 µM
[13] = second compound 1 µM, first compound 0.000316 µM
[14] = second compound 1 µM, first compound 0.001 µM
[15] = second compound 1 µM, first compound 0.00316 µM
[16] = second compound 1 µM, first compound 0.01 µM
[17] = second compound 1 µM, first compound 0.0316 µM
[18] = second compound 1 µM, first compound 0.1 µM
[19] = second compound 3.16 µM, first compound 0.000316 µM
[20] = second compound 3.16 µM, first compound 0.001 µM
[21] = second compound 3.16 µM, first compound 0.00316 µM
[22] = second compound 3.16 µM, first compound 0.01 µM
[23] = second compound 3.16 µM, first compound 0.0316 µM
[24] = second compound 3.16 µM, first compound 0.1 µM
[25] = second compound 10 µM, first compound 0.000316 µM
[26] = second compound 10 µM, first compound 0.001 µM
[27] = second compound 10 µM, first compound 0.00316 µM
[28] = second compound 10 µM, first compound 0.01 µM
[29] = second compound 10 µM, first compound 0.0316 µM
[30] = second compound 10 µM, first compound 0.1 µM

Row | SMILES | IC50 (second compound 0.1 µM) [nM] | IC50 (second compound 0.316 µM) [nM] | IC50 (second compound 1 µM) [nM] | IC50 (second compound 3.16 µM) [nM] | IC50 (second compound 10 µM) [nM] | viability, T/C [1] [%] | viability, T/C [2] [%] | viability, T/C [3] [%] | viability, T/C [4] [%] | viability, T/C [5] [%] | viability, T/C [6] [%] | viability, T/C [7] [%] | viability, T/C [8] [%] | viability, T/C [9] [%] | viability, T/C [10] [%] | viability, T/C [11] [%] | viability, T/C [12] [%] | viability, T/C [13] [%] | viability, T/C [14] [%] | viability, T/C [15] [%] | further results
1 | CC(C)CC(NC(=O)C(Cc1ccccc1)NC(=O)c1cnccn1)B(O)O (stereo not given) + NC1CC1c1ccc(-c2cccc(O)c2)cc1 | < 0.316 | < 0.316 | < 0.316 | < 0.316 | < 0.316 | 29.9 | 1.88 | 0.68 | 0.5 | 0.85 | 1.08 | 31.8 | 0.28 | 0.07 | 0.06 | 0.07 | 0.14 | 28.9 | 0.45 | 0.11 | viability, T/C [16]: 0.08%; viability, T/C [17]: 0.09%; viability, T/C [18]: 0.15%; viability, T/C [19]: 25.6%; viability, T/C [20]: 0.41%; viability, T/C [21]: 0.12%; viability, T/C [22]: 0.15%; viability, T/C [23]: 0.07%; viability, T/C [24]: 1.91%; viability, T/C [25]: 18.3%; viability, T/C [26]: 0.24%; viability, T/C [27]: 0.13%; viability, T/C [28]: 0.11%; viability, T/C [29]: 0.12%; viability, T/C [30]: 1.1%
2 | CC(C)CC(NC(=O)CNC(=O)c1cc(Cl)ccc1Cl)B1OC(=O)CC(CC(=O)O)(C(=O)O)O1 (stereo not given) + NC1CC1c1ccc(-c2cccc(O)c2)cc1 | 4.37 | 3.09 | 2.35 | 2.49 | 1.01 | 85.1 | 93.9 | 62.9 | 14.6 | 1.93 | 1.29 | 67.8 | 73.3 | 48.4 | 11.8 | 0.83 | 0.29 | 61.7 | 66 | 44.4 | viability, T/C [16]: 13.8%; viability, T/C [17]: 0.95%; viability, T/C [18]: 0.24%; viability, T/C [19]: 61.8%; viability, T/C [20]: 73.7%; viability, T/C [21]: 43.4%; viability, T/C [22]: 12.7%; viability, T/C [23]: 0.98%; viability, T/C [24]: 0.37%; viability, T/C [25]: 48%; viability, T/C [26]: 55.2%; viability, T/C [27]: 30.4%; viability, T/C [28]: 7.98%; viability, T/C [29]: 0.83%; viability, T/C [30]: 0.27%
